# Measured values from PubChem BioAssay (NCI).
#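 Following 48 hours of exposure in 96-well plates, responses at five concentrations were used to interpolate endpoints linearly. At the GI50, growth is halved. TGI denotes the concentration required for complete inhibition of growth.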
# How the values were obtained:
# Assay in all cases: NCI tumour cell line growth inhibition, 48 h
# MDA-MB-231 breast = test system: MDA-MB-231 breast
# SN12C renal = test system: SN12C renal
# EKVX NSCLC = test system: EKVX NSCLC
# SF-268 CNS = test system: SF-268 CNS
# CAKI-1 renal = test system: CAKI-1 renal
# DU-145 prostate = test system: DU-145 prostate
# HOP-62 NSCLC = test system: HOP-62 NSCLC
# SF-539 CNS = test system: SF-539 CNS
# COLO 205 colon = test system: COLO 205 colon
# LOX IMVI melanoma = test system: LOX IMVI melanoma
# MOLT-4 leukemia = test system: MOLT-4 leukemia
# SK-MEL-5 melanoma = test system: SK-MEL-5 melanoma
# HL-60(TB) leukemia = test system: HL-60(TB) leukemia
# NCI-H226 lung = test system: NCI-H226 lung
# A549 NSCLC = test system: A549 NSCLC
# BT-549 breast = test system: BT-549 breast
# UACC-257 melanoma = test system: UACC-257 melanoma
# MCF7 breast = test system: MCF7 breast
# HT29 colon = test system: HT29 colon
# KM12 colon = test system: KM12 colon
# TK-10 renal = test system: TK-10 renal
# HCT-15 colon = test system: HCT-15 colon
# IGROV1 ovarian = test system: IGROV1 ovarian
# SR leukemia = test system: SR leukemia
# OVCAR-5 ovarian = test system: OVCAR-5 ovarian
# CCRF-CEM leukemia = test system: CCRF-CEM leukemia
# SK-OV-3 ovarian = test system: SK-OV-3 ovarian
# SNB-19 CNS = test system: SNB-19 CNS
# NCI-H23 lung = test system: NCI-H23 lung
# HOP-92 NSCLC = test system: HOP-92 NSCLC
# SK-MEL-28 melanoma = test system: SK-MEL-28 melanoma
# SF-295 CNS = test system: SF-295 CNS
# SNB-75 CNS = test system: SNB-75 CNS
# K-562 leukemia = test system: K-562 leukemia
# OVCAR-3 ovarian = test system: OVCAR-3 ovarian
# 786-0 renal = test system: 786-0 renal
# SW-620 colon = test system: SW-620 colon
# M14 melanoma = test system: M14 melanoma
# NCI-H460 lung = test system: NCI-H460 lung
# HCT-116 colon = test system: HCT-116 colon
# OVCAR-4 ovarian = test system: OVCAR-4 ovarian
# UO-31 renal = test system: UO-31 renal
# NCI/ADR-RES ovarian = test system: NCI/ADR-RES ovarian
# A498 renal = test system: A498 renal
# PC-3 prostate = test system: PC-3 prostate
# MALME-3M melanoma = test system: MALME-3M melanoma
# SK-MEL-2 melanoma = test system: SK-MEL-2 melanoma
# T-47D breast = test system: T-47D breast
# NCI-H522 lung = test system: NCI-H522 lung
# RPMI-8226 leukemia = test system: RPMI-8226 leukemia
# UACC-62 melanoma = test system: UACC-62 melanoma
# U251 CNS = test system: U251 CNS
# MDA-MB-435 = test system: MDA-MB-435
# ACHN renal = test system: ACHN renal
structure (smiles),measurement,setting,value
CNCCCNc1c2cc(OC)ccc2nc2cccc([N+](=O)[O-])c12,GI50,MDA-MB-231 breast,69.4 nM
same,TGI,MDA-MB-231 breast,672 nM
same,GI50,SN12C renal,86.4 nM
same,TGI,SN12C renal,16.5 µM
same,GI50,EKVX NSCLC,274 nM
same,TGI,EKVX NSCLC,1150 nM
same,GI50,SF-268 CNS,56.5 nM
same,TGI,SF-268 CNS,376 nM
same,GI50,CAKI-1 renal,30.6 nM
same,TGI,CAKI-1 renal,128 nM
same,GI50,DU-145 prostate,45.4 nM
same,TGI,DU-145 prostate,14.8 µM
same,GI50,HOP-62 NSCLC,28.4 nM
same,TGI,HOP-62 NSCLC,81 nM
same,GI50,SF-539 CNS,132 nM
same,TGI,SF-539 CNS,366 nM
same,GI50,COLO 205 colon,41.8 nM
same,TGI,COLO 205 colon,237 nM
same,GI50,LOX IMVI melanoma,64.1 nM
same,TGI,LOX IMVI melanoma,354 nM
same,TGI,MOLT-4 leukemia,48.2 nM
same,GI50,SK-MEL-5 melanoma,19 nM
same,TGI,SK-MEL-5 melanoma,37.5 nM
same,GI50,HL-60(TB) leukemia,16.2 nM
same,GI50,NCI-H226 lung,128 nM
same,TGI,NCI-H226 lung,385 nM
same,GI50,A549 NSCLC,32 nM
same,TGI,A549 NSCLC,247 nM
same,GI50,BT-549 breast,186 nM
same,TGI,BT-549 breast,406 nM
same,GI50,UACC-257 melanoma,173 nM
same,TGI,UACC-257 melanoma,397 nM
same,GI50,MCF7 breast,23.4 nM
same,TGI,MCF7 breast,101 nM
same,GI50,HT29 colon,22.3 nM
same,TGI,HT29 colon,80.6 nM
same,GI50,KM12 colon,43.1 nM
same,TGI,KM12 colon,251 nM
same,TGI,TK-10 renal,378 nM
same,GI50,HCT-15 colon,28.5 nM
same,GI50,IGROV1 ovarian,33.8 nM
same,TGI,IGROV1 ovarian,195 nM
same,GI50,SR leukemia,25.3 nM
same,GI50,OVCAR-5 ovarian,24.6 nM
same,TGI,OVCAR-5 ovarian,99.3 nM
same,GI50,CCRF-CEM leukemia,17.3 nM
same,TGI,CCRF-CEM leukemia,173 nM
same,GI50,SK-OV-3 ovarian,65 nM
same,TGI,SK-OV-3 ovarian,670 nM
same,GI50,SNB-19 CNS,123 nM
same,TGI,SNB-19 CNS,519 nM
same,GI50,NCI-H23 lung,26.9 nM
same,TGI,NCI-H23 lung,220 nM
same,GI50,HOP-92 NSCLC,23.2 nM
same,TGI,HOP-92 NSCLC,137 nM
same,GI50,SK-MEL-28 melanoma,150 nM
same,TGI,SK-MEL-28 melanoma,650 nM
same,GI50,SF-295 CNS,40.7 nM
same,TGI,SF-295 CNS,258 nM
same,GI50,SNB-75 CNS,61.1 nM
same,TGI,SNB-75 CNS,224 nM
same,GI50,K-562 leukemia,15.3 nM
same,TGI,K-562 leukemia,44.9 nM
same,GI50,OVCAR-3 ovarian,234 nM
same,TGI,OVCAR-3 ovarian,818 nM
same,GI50,786-0 renal,34.3 nM
same,TGI,786-0 renal,306 nM
same,GI50,SW-620 colon,36.9 nM
same,TGI,SW-620 colon,517 nM
same,GI50,M14 melanoma,21.1 nM
same,TGI,M14 melanoma,47.6 nM
same,GI50,NCI-H460 lung,25 nM
same,TGI,NCI-H460 lung,103 nM
same,GI50,HCT-116 colon,25.5 nM
same,TGI,HCT-116 colon,150 nM
same,GI50,OVCAR-4 ovarian,16.6 nM
same,TGI,OVCAR-4 ovarian,52.8 nM
same,GI50,UO-31 renal,85.5 nM
same,TGI,UO-31 renal,275 nM
same,GI50,NCI/ADR-RES ovarian,444 nM
same,TGI,NCI/ADR-RES ovarian,3.47 µM
same,GI50,A498 renal,63.7 nM
same,TGI,A498 renal,271 nM
same,TGI,PC-3 prostate,277 nM
same,GI50,MALME-3M melanoma,110 nM
same,TGI,MALME-3M melanoma,315 nM
CCCCCCCCCCCCC/C=C/[C@H]1[C@@H](C(=O)OC)N1S(=O)c1ccc(C)cc1 (stereo not given in full),TGI,EKVX NSCLC,> 100000 nM
same,TGI,DU-145 prostate,> 100 µM
same,TGI,HOP-62 NSCLC,> 100000 nM
same,TGI,COLO 205 colon,> 100000 nM
same,TGI,SK-MEL-2 melanoma,> 100 µM
same,TGI,LOX IMVI melanoma,> 100000 nM
same,TGI,MOLT-4 leukemia,> 100000 nM
same,TGI,T-47D breast,> 100 µM
same,TGI,SK-MEL-5 melanoma,> 100000 nM
same,TGI,HL-60(TB) leukemia,81.3 µM
same,TGI,NCI-H522 lung,> 100 µM
same,TGI,BT-549 breast,> 100000 nM
same,TGI,UACC-257 melanoma,> 100000 nM
same,TGI,TK-10 renal,> 100000 nM
same,TGI,RPMI-8226 leukemia,> 100 µM
same,TGI,IGROV1 ovarian,> 100000 nM
same,TGI,SR leukemia,> 100 µM
same,TGI,CCRF-CEM leukemia,> 100000 nM
same,TGI,UACC-62 melanoma,> 100 µM
same,TGI,U251 CNS,> 100 µM
same,TGI,NCI-H23 lung,> 100000 nM
same,TGI,HOP-92 NSCLC,> 100000 nM
same,TGI,SK-MEL-28 melanoma,> 100000 nM
same,TGI,MDA-MB-435,> 100 µM
same,TGI,K-562 leukemia,> 100000 nM
same,TGI,ACHN renal,> 100 µM
same,TGI,OVCAR-3 ovarian,> 100000 nM
same,TGI,786-0 renal,> 100000 nM
same,TGI,SW-620 colon,> 100000 nM
same,TGI,HCT-116 colon,> 100000 nM
same,TGI,UO-31 renal,> 100000 nM
same,TGI,A498 renal,> 100000 nM
same,TGI,PC-3 prostate,> 100000 nM
same,TGI,MALME-3M melanoma,> 100000 nM
